test: in vitro; conditions: human, hela cells, % viability

| SMILES | viability at 28.5 h, 10 µM [%] |
| --- | --- |
| O=C(C1CC=CCC1)N1CCC(c2[nH]ncc2-c2ccncc2)CC1 (stereo not drawn) [CBK284212] | 84 |
| CN(Cc1cn(-c2ccccc2)nc1-c1ccccc1)C(=O)CCc1n[nH]c(=S)[nH]c1=O [CBK295630] | 102 |
| CC(C)(CN1CCCC1)NC(=O)c1cc(Cl)c(Cl)cc1C(=O)O [CBK287141] | 89 |
| Cc1cccnc1CN1CCN(C(=O)NCCSc2nncn2C)CC1 [CBK306949] | 89.9 |
| N#Cc1c(NC(=O)CCn2cnnn2)sc2c1CCC2 [CBK270041] | 93.5 |
| Cc1nc(SCC(=O)O)nc(O)c1CCC(C)C [CBK269920] | 92.9 |
| COc1cc(/C=C2\SC(=N)NC2=O)ccc1OCC(=O)O [CBK262675] | 88.4 |
| Cc1oc(S(=O)(=O)N(C)C)cc1C(=O)O [CBK113681] | 98.1 |
| CCCN(C)Cc1ccc(-c2cn(CC(=O)NCc3ccc(C(F)(F)F)cc3)nn2)cc1 [CBK164719] | 92.9 |
| COc1ccccc1CCCN1CCC2(C1)NCCc1c2[nH]c2ccccc12 (stereo not drawn) [CBK040257] | 91 |
| O=[N+]([O-])c1ccccc1S(=O)(=O)N1CCN(S(=O)(=O)c2ccc(Cl)cc2)CC1 [CBK264311] | 98.6 |
| COc1ccc(C)cc1S(=O)(=O)N1CCN(C(c2ccccc2)c2ccccc2)CC1 [CBK263977] | 91.8 |
| O=C(NCC(CN1CCOCC1)([N+](=O)[O-])[N+](=O)[O-])c1ccccc1 [CBK261339] | 100 |
| COc1ccc(N(CC(O)CN2CCOCC2)S(=O)(=O)c2ccccc2)cc1 (stereo not drawn) [CBK263589] | 84.5 |
| O=C(O)c1ccc(Cl)c(S(=O)(=O)NCc2ccco2)c1 [CBK304575] | 105 |
| COc1cc2c(cc1OC)C(CCCC#N)=[N+](C)C(C)(C)C2 [CBK008807I] | 97.9 |
| O=C(CN1CCCCCC1)Nc1sc2c(c1C(=O)Nc1ccc(Br)cc1)CCC2 [CBK265076] | 109 |
| CC(C)C[C@H](NC(=O)OC(C)(C)C)C(=O)N1CCC(C(=O)O)CC1 [CBK286742] | 80.6 |
| Cn1c(CN2C[C@H](O)C[C@H]2c2nc(-c3ccccc3)no2)nc2ccccc21 [CBK288834] | 78.7 |
| COc1ccc(/C=C/C(=O)O)cc1S(=O)(=O)N1CCCC1 [CBK058388] | 93.5 |
| CCCCNC(=O)Nc1ncc(-c2ccc(C#N)cc2)nc1-c1ccc(C(=O)N2CCOCC2)cc1 [CBK105766] | 91.1 |
| O=C(NC1(C#Cc2cnc3ccccc3c2)CCCCC1)C1CCCO1 (stereo not drawn) [CBK283085] | 81.9 |

| SMILES | viability at 28.5 h, 10 µM [%] |
| --- | --- |
| COc1ccc(C(=O)N(C)Cc2cnn(C)c2)cc1Br [CBK305149] | 84.8 |
| COc1cc2nc(N3CCC4(CCN(C(=O)C(c5ccccc5)C(C)C)C4)C3)nc(N)c2cc1OC (stereo not drawn) [CBK160790] | 76.3 |
| CCN1CCN(C(=O)C2CC(C)=C(C)CC2C(=O)O)CC1 (stereo not drawn) [CBK270311] | 87.1 |
| OCCN1CCN(c2ncnc3scc(-c4ccccc4)c23)CC1 [CBK287582] | 94.6 |
| Cc1c(S(=O)(=O)Nc2ccc(C(O)(C(F)(F)F)C(F)(F)F)cc2)cnn1-c1ccccc1 [CBK062099] | 92.1 |
| CN(C)c1cccc(-c2cnc3[nH]c(=O)n(CCCO)c3n2)c1 [CBK065052] | 102 |
| O=C(Nc1ncnc2c1nc(OCc1ccccc1)n2C1CC(O)C(CO)O1)c1ccccc1 (stereo not drawn) [CBK201220] | 95.3 |
| CCN1CCN(Cc2nc3c([nH]2)c(=O)n(C)c(=O)n3C)CC1 [CBK269413] | 90.5 |
| c1ccc(CCN2CCC(Oc3nccnc3OCc3cccnc3)CC2)nc1 [CBK083180] | 103 |
| CC(C)Nc1nc2ccccc2nc1OCc1ccc(C2CC2C(=O)N(C)C)cc1 (stereo not drawn) [CBK166091] | 92.5 |
| O=C(c1cccnc1NCc1ccc2c(c1)OCO2)N1CCNCC1 [CBK156112T] | 104 |
| CCCn1ccnc1-c1cn(CCc2cc(O)nc(C)n2)nn1 [CBK306675] | 114 |
| CC(=O)Nc1cccc(-c2cnc3[nH]c(=O)n(C4CC4)c3n2)c1 [CBK064859] | 103 |
| Cc1cc(NC(=O)C2CCN(CC3CCCO3)CC2)no1 (stereo not drawn) [CBK305544] | 110 |
| O=[N+]([O-])c1ccc(S(=O)(=O)CC(CN2CCCC2)N2CCCC2)cc1 (stereo not drawn) [CBK266991] | 112 |
| COCC(C)NC(=O)Cn1cccc2cc(C(F)F)nc1-2 (stereo not drawn) [CBK285011] | 104 |
| O=C(CCc1ccno1)NC(Cc1ccsc1)c1cccnc1 (stereo not drawn) [CBK285395] | 97.3 |
| CC(=O)N1CCC(n2c(C3CC3)nc3sc(C)c(C)c3c2=O)CC1 [CBK282369] | 85.2 |
| CN(Cc1ccccc1N1CCCC1)C(=O)Cc1cn2ccsc2n1 [CBK305897] | 78 |
| COc1ccc(C(=O)c2c[nH]c3ccccc23)cc1 [CBK111451] | 88.9 |
| CC(C)(C)OC(=O)NCc1ccc2cccc(OCCO)c2n1 [CBK000585] | 83.3 |
| Cc1cc2nc(/C(C#N)=C\c3cn(CC(=O)Nc4ccc(F)cc4)c4ccccc34)[nH]c2cc1C [CBK269142] | 113 |

| SMILES | viability at 28.5 h, 10 µM [%] |
| --- | --- |
| Cc1ccc2c(c1)CC(=O)NC21CCN(C(=O)C2CC2C(=O)O)CC1 (stereo not drawn) [CBK047258] | 103 |
| O=C(CNC1Cc2ccccc2C1)Nc1ccc(Cl)cc1C(=O)c1ccccc1Cl [CBK074764] | 100 |
| COc1cccc(C(=O)NC(c2ccc([N+](=O)[O-])cc2)c2c(O)ccc3ccccc23)c1 (stereo not drawn) [CBK263971] | 84.2 |
| COc1cccc(NC(=O)CCCC(=O)O)c1 [CBK261324] | 98.1 |
| OCCN(CCO)c1cncc(-c2cccs2)n1 [CBK065766] | 95.4 |
| O=C(c1cc[nH]n1)N1CCc2nc(-c3cccc(F)c3)sc2C1 [CBK281915] | 84.9 |
| N#Cc1ccccc1OCCO [CBK001443] | 97.9 |
| Cc1cccc(N2CCN(C(=O)C3CCN(Cc4cccc(OCc5ccccc5)c4)CC3)CC2)c1C [CBK264328G] | 94.3 |
| Cc1cc(Cl)c(S(=O)(=O)Nc2ccc(C#N)cc2)cc1OCC(N)=O [CBK266560] | 112 |
| CC(=O)N1CCC[C@@H]1C(=O)N1CC[C@@H]2NC(=O)[C@H](Cc3ccccc3)NC(=O)C3(C/C=C/C[C@@H]2C1)CCOCC3 [CBK292195] | 104 |
| O=C(N[C@H]1C[C@H]2C(=O)Nc3ccc(-c4ccsc4)cc3C(=O)N2C1)c1ccccc1 [CBK289361] | 91 |
| COc1ncccc1C(=O)N1CCc2ccccc21 [CBK200402] | 91.5 |
| Cc1cc(CN(C)Cc2c(C)nc3c(C)cccn23)n[nH]1 [CBK281716] | 99.1 |
| O=C(c1cc(C2CC2)on1)N1CCc2ncc(Cl)cc2C1 [CBK284855] | 106 |
| Cc1nnc2n1CCN(C(=O)CC1OCCc3sccc31)C2 (stereo not drawn) [CBK304956] | 94 |
| CCOc1ccc(S(=O)(=O)N2CCCC(C(=O)NCCO)C2)cc1 (stereo not drawn) [CBK269968] | 83.8 |
| CS(=O)(=O)c1cccc(C(=O)Nc2cnc(-c3ccc(F)c(Cl)c3)c(-c3cccnc3)n2)c1 [CBK036779] | 101 |
| O=C(CC1Nc2cccc3cccc(c23)NC1=O)Nc1ccccc1 (stereo not drawn) [CBK268035] | 87.2 |
| c1ncc(OC2CCNC2)nc1OCCN1CCOCC1 (stereo not drawn) [CBK077311T] | 91.2 |
| CN(CC1(C)COC1)C(=O)c1cn2cc(Cl)ccc2n1 [CBK281721] | 109 |
| CCCC(=O)Nc1ccc(-c2csc(CCN3CCOC3=O)n2)cc1 [CBK305687] | 97 |
| O=C(O)C1CCN(S(=O)(=O)c2ccccc2[N+](=O)[O-])CC1 [CBK265267] | 98.6 |

| SMILES | viability at 28.5 h, 10 µM [%] |
| --- | --- |
| O=C1CC(N2CCC(c3nc4ccccc4o3)CC2)C(=O)N1Cc1cccs1 (stereo not drawn) [CBK268735] | 104 |
| Cc1ccc(S(=O)(=O)Nc2ccccc2C(N)=O)cc1 [CBK056893] | 76 |
| COc1ccc(-c2cc(C(F)(F)F)nc(SCC(=O)Nc3ccc4c(c3)OCO4)n2)cc1OC [CBK266169] | 101 |
| O=C(Cc1c[nH]c2ccccc12)Nc1cccnc1N1CCNCC1 [CBK028265T] | 105 |
| O=C(NC1CCCOC1)c1cc(-c2ccc(F)cc2)no1 (stereo not drawn) [CBK283141] | 107 |
| CCCCC(=O)N(C)c1c(C)nc2ccc(C(=O)Nc3ccc(C(N)=O)cc3)cn12 [CBK147066] | 94.5 |
| O=C(c1ccco1)N1CCC(c2nnc3n2CCCCC3)CC1 [CBK284607] | 94.3 |
| COc1ccccc1N1CCN(CC(O)COCc2ccc3c(c2)OCO3)CC1 (stereo not drawn) [CBK278323C] | 101 |
| CCCS(=O)(=O)Nc1ccc(=O)n2c1[C@@H]1C[C@@H](CN(C(=O)c3ccc(OC)cc3)C1)C2 [CBK288711] | 78.3 |
| COC(=O)CCc1ccc(S(=O)(=O)N2CCCN(Cc3cc(Cl)cc(Cl)c3)CC2)cc1 [CBK062982] | 97.2 |
| CCNC(=O)N1CC2(CCN(CCOc3ccccc3)CC2)c2ccccc21 [CBK122701] | 93.9 |
| CC1CCc2c(C(=O)N3CCC4(C3)NC(=O)NC4=O)csc2C1 (stereo not drawn) [CBK304290] | 76.8 |
| CC(=O)NC(c1nccs1)C1CCCN(C(=O)C2CCCC2)C1 (stereo not drawn) [CBK284966] | 101 |
| Cn1c(=O)c2c(ncn2Cc2ccccc2)n(C)c1=O [CBK133402] | 102 |
| Cn1c(N2CCOCC2)nc2cc(C(=O)NCCn3cccn3)ccc21 [CBK307033] | 87.5 |
| COc1ccccc1N1CCN(CCCCNC(=O)c2ccc(Cl)cc2)CC1 [CBK074835] | 93 |
| Cc1ccccc1Nc1n[nH]c(=S)s1 [CBK015808] | 111 |
| COc1cc(C(=O)N2CCCC3(CCN(C(=O)c4cc(F)c(F)cc4F)C3)C2)cc(OC)c1OC (stereo not drawn) [CBK131563] | 106 |
| O=C(O)c1cc(S(=O)(=O)Nc2ccc3nc(N4CCCC4)sc3c2)ccc1Br [CBK296710] | 91.5 |
| COc1ccc(OC(=O)c2ccc3ncccc3c2)cc1 [CBK083572] | 96.3 |
| CN1CCN(C)C(CNC(=O)c2ccc(-c3ccccc3CO)cc2)C1 (stereo not drawn) [CBK307475] | 84.2 |
